Laboratory results from patent US6991804B2, “Delivery systems for periadventitial delivery for treatment of restenosis and anastomotic intimal hyperplasia” (Edwards Lifesciences Corporation, priority 2000, dated 2006).
Marks after values point to notes of the source that are not given here.

Assays:
[1] = post-surgery
Experimental: Animals received standard laboratory diet proscribed in QCOP B618, with supplements provided at the discretion of a veterinarian; water was available ad libitum.
Post-operative care was performed as described in QCOP B809, along with prophylactic administration of antibiotics (Sulfamethoxaxole and Trimethoprin); analgesics were supplied as described in QCOP B803. 7 days post surgery, animals received 250 mg/day aspirin. The wound site was debrided and temperature, heart rate and respiratory rates were monitored daily the week following surgery. Angiography of the carotid sites was performed following surgery and monthly thereafter. Intravascular ultrasound (IVUS) was used to examine the vein grafts in 10 animals at the 12 week endpoint of the study.

[2] = system: Carotid Vein Grafts; test: Carotid vein grafts (femoral vein interposition, end-to-side anastomoses): percent stenoses of anastomoses by angiography; type: in vivo, Dogs
Experimental: The animal was heparinized (100 IU/kg body weight), and anticoagulated at the surgeon's discretion with additional heparin. The carotid artery was cross-clamped and transected. An interpositional graft with end-to-side anastamoses of the femoral vein to the carotid artery was performed. Anastomoses were identified with a surgical staple. Where indicated, the test or control articles were applied to a uniform thickness and allowed to harden. Grafts were placed in both carotid arteries, with the procedures done in series.
Image analysis was performed by a qualified vascular surgeon who also analyzed the data. REF Images from angiography were captured on a VHS tape. Digital images were captured from this tape and saved after which they were evaluated using NIH Image. The lumenal width of the native arterial segments proximal and distal to the vein grafts, and the proximal and distal anastomoses were measured. The percent stenoses of the anastomoses relative to the adjacent native arterial segment were reported.
Images were captured as described in section above, and were evaluated by NIH Image. The lumenal width of native arterial segments proximal and distal to the graft and the proximal and distal anastomoses were measured.

[3] = system: Balloon-injured Femoral Arteries; test: Balloon-injured femoral arteries: lumenal width by angiography; type: in vivo, Dogs; settings: 12 weeks
Experimental: (§1) Balloon injury to the femoral arteries by three sequences of inflation and removal of a 4 Fr. Fogarty catheter generated 5 cm lesions in each femoral artery that were or were not treated with test/control articles. Injured areas were tagged with a staple. The insertion site was repaired and the animal was closed.
Angiography of the femoral arteries was performed at the termination of the experiment. Images were captured as described above and analyzed using NIH Image. Injured areas were identified by radio-opaque clips, and by anatomy. The lumenal widths of the arterial segments were measured just distal to the arteriotomy, and in the mid- and distal portions of the injured segments. The percent stenoses of the anastomoses relative to the adjacent native arterial segment were reported. The mean and least values were reported.
Images from angiography were captured and analyzed as described previously. The lumenal widths of the arterial segments were measured immediately distal to the arteriotomy, and in the mid- and distal portions of the injured segments.

[4] = system: Balloon-injured Femoral Arteries; test: Balloon-injured femoral arteries: morphometric analysis of histology (media, intima, lumen area); type: in vivo, Dogs
Experimental: as §1
Carotid arteries were exposed and the healing response was evaluated. The grafts, including anastomoses, were fixed under pressure in situ, and were removed along with 4 cm of proximal and distal host vessel. Femoral arteries were exposed and the healing response was observed. The femoral arteries were then fixed under pressure and removed with distal and proximal host tissue. Femoral and carotid arteries were stored in 10% neutral-buffered formalin until analysis by histology. Specimens for histological evaluation were processed and stained with Hematoxalin and Eosin and with Mallory's Trichrome by IDEXX Veterinary Services, West Sacramento, Calif.
Histology of the femoral arteries was analyzed with Adobe Photoshop. Briefly, (1) the lumen-vessel interface, (2) the internal elastic lamina, and (3) the external elastic lamina were traced on digital images from H&E stained tissue with the greatest amount of hyperplasia. The intimal area was determined by subtracting the area encompassing […]. The medial area was determined by subtracting the area encompassing (2) from (3). The area was measured as (1).
Histology of sections from areas spanning proximal and distal regions of the balloon-injured femorals and of native tissue proximal to the arteriotomy were evaluated by morphometric analysis as described above.

[5] = angiography, 12 weeks, pooled Paclitaxel groups (4 dogs, 8 vessels)
[6] = pooled Paclitaxel groups (4 dogs, 8 vessels)
[7] = histology, 12 weeks, pooled Paclitaxel groups (4 dogs, 8 vessels)

For CC(=O)O[C@H]1C(=O)[C@@]2(C)[C@H]([C@H](OC(=O)c3ccccc3)[C@]3(O)C[C@H](OC(=O)[C@H](O)[C@@H](NC(=O)c4ccccc4)c4ccccc4)C(C)=C1C3(C)C)[C@]1(OC(C)=O)CO[C@@H]1C[C@@H]2O [Paclitaxel ®, paclitaxel], the “Subcutaneous hematomas at the carotid site (animals affected/animals)” value ([1]; lesions resolved with time) was 4/8, the “Hematoma at the femoral site (animals affected/animals)” value ([1]; reduced in size with time and healed well) was 2/8 and the “Stenosis at anastomotic sites of carotid grafts (statement in words)” value ([2]; angiography at the 12 week endpoint) was “limited stenosis at the proximal and distal anastomotic sites”. For the same molecule, the “Per Cent Stenoses of Carotid Grafts ± Paclitaxel, Distal Anastomotic Site (mean ± s.d.)” value [2, 5] was 1.1 ± 2.2%, the “Per Cent Stenoses of Carotid Grafts ± Paclitaxel, Proximal Anastomotic Site (mean ± s.d)” value [2, 5] was 5.9 ± 6.5% and the “Difference between control, vehicle and Paclitaxel treatment groups in femoral lumenal width (statement in words)” value [3] was “no significant difference”. The “Least Lumenal Width of Balloon-Injured Segments Relative to Native Vessel ± Paclitaxel (Mean ± s.d)” value [3, 6] was 1.32 ± 0.47 mm, the “Men Lumenal Width of Balloon-Injured Segments Relative to Native Vessel ± Paclitaxel (Mean ± s.d.)” value [3, 6] was 1.52 ± 0.24 mm and the “Intima area of femoral artery in regions of intimal hyperplasia ± Paclitaxel (Mean ± s.d.)” value [4, 7] was 1.95 ± 1.00 mm^2. The “Intima: Media Ratio ± Paclitaxel” value [4, 7] was 0.56 ± 0.23, the “Lumen area of femoral artery in regions of intimal hyperplasia ± Paclitaxel (Mean ± s.d)” value [4, 7] was 4.98 ± 1.05* mm^2 and the “Media area of femoral artery in regions of intimal hyperplasia ± Paclitaxel (Mean ± s.d.)” value [4, 7] was 3.38 ± 0.84 mm^2. The “Change in intimal: medial ratio (statement in words)” value ([4]; morphometric analysis of histology, femoral sections) was “absence of changes” and the “Larger lumen width versus no Paclitaxel” value ([4]; morphometric analysis of histology, femoral sections with largest stenotic response, p</=0.06) was 44%.
